# Laboratory results as given in ChEMBL document CHEMBL1201862, “PubChem BioAssay data set” (2004).
#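 Grown in 96-well plates, cells were treated for 48 hours with each compound at five concentrations. Insufficient inhibition: endpoint recorded as highest concentration tested. GI50: concentration for 50% inhibition of growth.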 The source made the active and inactive calls. No stated cut-off is given here; in the data, active = GI50 up to about 1.1 µM and inactive = higher.
# Experiments:
# Test in all cases: inhibition of tumour cell growth, NCI panel, 48 h
# [1] = system: 786-0
# [2] = system: A498
# [3] = system: A549
# [4] = system: ACHN
# [5] = system: CAKI-1
# [6] = system: COLO 205
# [7] = system: DU-145
# [8] = system: HCC 2998
# [9] = system: HCT-116
# [10] = system: HCT-15
# [11] = system: HOP-62
# [12] = system: HT-29
# [13] = system: K562
# [14] = system: KM12
# [15] = system: M14
# [16] = system: MCF7
# [17] = system: MDA-MB-231
# [18] = system: MDA-MB-435
# [19] = system: MDA-N
# [20] = system: MOLT-4
# [21] = system: Malme-3M
# [22] = system: NCI-H23
# [23] = system: NCI-H460
# [24] = system: NCI-H522
# [25] = system: NCI/ADR-RES
# [26] = system: OVCAR-3
# [27] = system: OVCAR-4
# [28] = system: OVCAR-5
# [29] = system: OVCAR-8
# [30] = system: PC-3
# [31] = system: RPMI-8226
# [32] = system: RXF 393
# [33] = system: SF-268
# [34] = system: SF-295
# [35] = system: SF-539
# [36] = system: SK-MEL-28
# [37] = system: SK-MEL-2
# [38] = system: SK-MEL-5
# [39] = system: SK-OV-3
# [40] = system: SN12C
# [41] = system: SNB-19
# [42] = system: SR
# [43] = system: SW-620
# [44] = system: T47D
# [45] = system: TK-10
# [46] = system: U-251
# [47] = system: UACC-62
# [48] = system: UO-31
structure (smiles),measurement,setting,value
CNC(=O)CCNC(=O)CCC(=O)N(C)C,GI50,[1],> 100 µM (inactive)
same,GI50,[2],> 100 µM (inactive)
same,GI50,[3],> 100 µM (inactive)
same,GI50,[4],> 100 µM (inactive)
same,GI50,[5],> 100 µM (inactive)
same,GI50,[6],> 100 µM (inactive)
same,GI50,[7],> 100 µM (inactive)
same,GI50,[8],> 100 µM (inactive)
same,GI50,[9],> 100 µM (inactive)
same,GI50,[10],> 100 µM
same,GI50,[11],> 100 µM (inactive)
same,GI50,[12],> 100 µM (inactive)
same,GI50,[13],> 100 µM (inactive)
same,GI50,[14],> 100 µM (inactive)
same,GI50,[15],> 100 µM (inactive)
same,GI50,[16],> 100 µM (inactive)
same,GI50,[17],> 100 µM (inactive)
same,GI50,[18],> 100 µM (inactive)
same,GI50,[19],> 100 µM (inactive)
same,GI50,[20],> 100 µM (inactive)
same,GI50,[21],15.7 µM (inactive)
same,GI50,[22],> 100 µM (inactive)
same,GI50,[23],> 100 µM (inactive)
same,GI50,[24],2.77 µM (inactive)
same,GI50,[25],> 100 µM (inactive)
same,GI50,[26],> 100 µM (inactive)
same,GI50,[27],> 100 µM (inactive)
same,GI50,[28],> 100 µM (inactive)
same,GI50,[29],> 100 µM (inactive)
same,GI50,[30],> 100 µM (inactive)
same,GI50,[31],> 100 µM (inactive)
same,GI50,[32],> 100 µM (inactive)
same,GI50,[33],> 100 µM (inactive)
same,GI50,[34],> 100 µM (inactive)
same,GI50,[35],> 100 µM (inactive)
same,GI50,[36],> 100 µM (inactive)
same,GI50,[37],> 100 µM (inactive)
same,GI50,[38],> 100 µM (inactive)
same,GI50,[39],> 100 µM (inactive)
same,GI50,[40],> 100 µM (inactive)
same,GI50,[41],> 100 µM (inactive)
same,GI50,[42],0.951 µM (active)
same,GI50,[43],> 100 µM (inactive)
same,GI50,[44],> 100 µM (inactive)
same,GI50,[45],> 100 µM (inactive)
same,GI50,[46],> 100 µM (inactive)
same,GI50,[47],> 100 µM (inactive)
same,GI50,[48],> 100 µM (inactive)
